# Measurements from patent publication US12655125B2 (SIRONAX LTD., priority 2020, dated 2026).
# pEC50: −log10 of the molar value.
# System: HT-29 cells
# Experiment: HT29 Cells 0FBS Assay In Vitro (TNF-α/SMAC mimetic/zVAD-FMK induced necroptosis, CellTiter-Glo cell viability)
# Type: cell-based
# Conditions: Homo sapiens; HT-29 cells, FBS free medium, TNF-α (10 ng/ml), SMAC mimetic (6 uM), zVAD-FMK (10 μM), 20 hours; geometric mean EC50; read-out: Cell activity (EC50) of Compounds 1-116
# Method in brief: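 HT-29 cells (5,000/well, seeded overnight) in serum-free McCoy's 5A were stimulated with TNF-α 10 ng/ml, SMAC mimetic 6 μM and zVAD-FMK 10 μM to induce necroptosis. Compound added as 10-point 3-fold series for 20 h at 37° C. CellTiter-Glo luminescence gives viability; EC50 is geometric mean of duplicate dose-responses.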
row,SMILES,pEC50
1,"Cc1nn(C)cc1-c1cc(OC2CN(C(=O)N3N=CC[C@H]3c3cc(F)cc(F)c3)C2)c(F)cn1 [compound 38, (S)-(5-(3,5-difluorophenyl)-4,5-dihydro-1H-pyrazol-1-yl)(3-((2-(1,3-dimethyl-1H-pyrazol-4-yl)-5-fluoropyridin-4-yl)oxy)azetidin-1-yl)methanone]",7.00 to 10.00
2,"COc1cnn(C)c1-c1cc(OC2CN(C(=O)N3N=CC[C@H]3c3cc(F)cc(F)c3)C2)c(F)cn1 [compound 50, (S)-(5-(3,5-difluorophenyl)-4,5-dihydro-1H-pyrazol-1-yl)(3-((5-fluoro-2-(4-methoxy-1-methyl-1H-pyrazol-5-yl)pyridin-4-yl)oxy)azetidin-1-yl)methanone]",7.00 to 10.00
3,"COCCn1nc(C)c(-c2cc(OC3CN(C(=O)N4N=CC[C@H]4c4cc(F)cc(F)c4)C3)c(F)cn2)c1C [compound 93, (S)-(5-(3,5-difluorophenyl)-4,5-dihydro-1H-pyrazol-1-yl)(3-((5-fluoro-2-(1-(2-methoxyethyl)-3,5-dimethyl-1H-pyrazol-4-yl)pyridin-4-yl)oxy)azetidin-1-yl)methanone]",7.00 to 10.00
4,"Cn1ncc(C(N)=O)c1-c1cc(OC2CN(C(=O)N3N=CC[C@H]3c3cc(F)cc(F)c3)C2)c(F)cn1 [compound 66, (S)-5-(4-((1-(5-(3,5-difluorophenyl)-4,5-dihydro-1H-pyrazole-1-carbonyl)azetidin-3-yl)oxy)-5-fluoropyridin-2-yl)-1-methyl-1H-pyrazole-4-carboxamide]",7.00 to 10.00
5,"Cc1n[nH]c(C)c1-c1ccc(F)c(OC2CN(C(=O)N3N=CC[C@H]3c3cc(F)cc(F)c3)C2)c1 [compound 113, (S)-(5-(3,5-difluorophenyl)-4,5-dihydro-1H-pyrazol-1-yl)(3-(5-(3,5-dimethyl-1H-pyrazol-4-yl)-2-fluorophenoxy)azetidin-1-yl)methanone]",7.00 to 10.00
6,"Cc1nn(CC(=O)N2CCOCC2)c(C)c1-c1cc(OC2CN(C(=O)N3N=CC[C@H]3c3cc(F)cc(F)c3)C2)c(F)cn1 [compound 96, (S)-2-(4-(4-((1-(5-(3,5-difluorophenyl)-4,5-dihydro-1H-pyrazole-1-carbonyl)azetidin-3-yl)oxy)-5-fluoropyridin-2-yl)-3,5-dimethyl-1H-pyrazol-1-yl)-1-morpholinoethan-1-one]",7.00 to 10.00
7,"COCCOc1cnn(C)c1-c1cc(OC2CN(C(=O)N3N=CC[C@H]3c3cc(F)cc(F)c3)C2)c(F)cn1 [compound 52, (S)-(5-(3,5-difluorophenyl)-4,5-dihydro-1H-pyrazol-1-yl)(3-((5-fluoro-2-(4-(2-methoxyethoxy)-1-methyl-1H-pyrazol-5-yl)pyridin-4-yl)oxy)azetidin-1-yl)methanone]",7.00 to 10.00

# Same assay, conditions: Homo sapiens; HT-29 cells, FBS free medium, TNF-α (10 ng/ml), SMAC mimetic (6 uM), zVAD-FMK (10 μM), 20 hours; geometric mean EC50; read-out: Cell activity (EC50) of Compounds 117-281
row,SMILES,pEC50
1,"Cc1c(-c2cc(OC3CN(C(=O)N4N=CC[C@H]4c4cc(F)cc(F)c4)C3)c(F)cn2)nn(C)c1C(N)=O [compound 229, (S)-3-(4-((1-(5-(3,5-difluorophenyl)-4,5-dihydro-1H-pyrazole-1-carbonyl)azetidin-3-yl)oxy)-5-fluoropyridin-2-yl)-1,4-dimethyl-1H-pyrazole-5-carboxamide]",7.00 to 10.00
2,"CNc1nn(C)c(-c2cc(OC3CN(C(=O)N4N=CC[C@H]4c4cc(F)cc(F)c4)C3)c(F)cn2)c1C [compound 125, (S)-(5-(3,5-difluorophenyl)-4,5-dihydro-1H-pyrazol-1-yl)(3-((2-(1,4-dimethyl-3-(methylamino)-1H-pyrazol-5-yl)-5-fluoropyridin-4-yl)oxy)azetidin-1-yl)methanone]",7.00 to 10.00
3,"CCNC(=O)c1c(C)nn(-c2cc(OC3CN(C(=O)N4N=CC[C@H]4c4cc(F)cc(F)c4)C3)c(F)cn2)c1C [compound 231, (S)-1-(4-((1-(5-(3,5-difluorophenyl)-4,5-dihydro-1H-pyrazole-1-carbonyl)azetidin-3-yl)oxy)-5-fluoropyridin-2-yl)-N-ethyl-3,5-dimethyl-1H-pyrazole-4-carboxamide]",7.00 to 10.00
4,"Cc1nn(-c2cc(OC3CN(C(=O)N4N=CCC4c4cc(F)cc(F)c4)C3)c(F)cn2)c(C)c1C(N)=O (stereo not shown) [compound 234, 1-(4-((1-(5-(3,5-difluorophenyl)-4,5-dihydro-1H-pyrazole-1-carbonyl)azetidin-3-yl)oxy)-5-fluoropyridin-2-yl)-3,5-dimethyl-1H-pyrazole-4-carboxamide]",7.00 to 10.00
5,"Cc1nn(S(C)(=O)=O)c(C)c1-c1cc(OC2CN(C(=O)N3N=CC[C@H]3c3cc(F)cc(F)c3)C2)c(F)cn1 [compound 187, (S)-(5-(3,5-difluorophenyl)-4,5-dihydro-1H-pyrazol-1-yl)(3-((2-(3,5-dimethyl-1-(methylsulfonyl)-1H-pyrazol-4-yl)-5-fluoropyridin-4-yl)oxy)azetidin-1-yl)methanone]",7.00 to 10.00
6,"Cc1c(Cl)nn(C)c1-c1cc(OC2CN(C(=O)N3N=CC[C@H]3c3cc(F)cc(F)c3)C2)c(F)cn1 [compound 175, (S)-(3-((2-(3-chloro-1,4-dimethyl-1H-pyrazol-5-yl)-5-fluoropyridin-4-yl)oxy)azetidin-1-yl)(5-(3,5-difluorophenyl)-4,5-dihydro-1H-pyrazol-1-yl)methanone]",7.00 to 10.00
7,"Cc1nn(-c2cc(OC3CN(C(=O)N4N=CC[C@H]4c4cc(F)cc(F)c4)C3)c(F)cn2)c(C)c1CC#N [compound 271, (S)-2-(1-(4-((1-(5-(3,5-difluorophenyl)-4,5-dihydro-1H-pyrazole-1-carbonyl)azetidin-3-yl)oxy)-5-fluoropyridin-2-yl)-3,5-dimethyl-1H-pyrazol-4-yl)acetonitrile]",7.00 to 10.00
8,"[2H]C1(c2cc(F)cc(F)c2)CC=NN1C(=O)N1CC(Oc2cc(-n3nc(C)c(C(N)=O)c3C)ncc2F)C1 (stereo not shown) [compound 277, 1-(4-((1-(5-(3,5-difluorophenyl)-4,5-dihydro-1H-pyrazole-1-carbonyl-5-d)azetidin-3-yl)oxy)-5-fluoropyridin-2-yl)-3,5-dimethyl-1H-pyrazole-4-carboxamide]",7.00 to 10.00
9,"Cc1c(C#N)nn(C)c1-c1ccc(F)c(OC2CN(C(=O)N3N=CC[C@H]3c3cc(F)cc(F)c3)C2)n1 [compound 186, (S)-5-(6-((1-(5-(3,5-difluorophenyl)-4,5-dihydro-1H-pyrazole-1-carbonyl)azetidin-3-yl)oxy)-5-fluoropyridin-2-yl)-1,4-dimethyl-1H-pyrazole-3-carbonitrile]",7.00 to 10.00
10,"Cc1c([S+](C)[O-])nn(C)c1-c1cc(OC2CN(C(=O)N3N=CC[C@H]3c3cc(F)cc(F)c3)C2)c(F)cn1 (stereo in doubt) [compound 178, (5-(3,5-difluorophenyl)-4,5-dihydro-1H-pyrazol-1-yl)(3-((2-(1,4-dimethyl-3-(methylsulfinyl)-1H-pyrazol-5-yl)-5-fluoropyridin-4-yl)oxy)azetidin-1-yl)methanone]",7.00 to 10.00
11,"CCOC(=O)c1c(C)cc(C)n1-c1cc(OC2CN(C(=O)N3N=CC[C@H]3c3cc(F)cc(F)c3)C2)c(F)cn1 [compound 128, Ethyl (S)-1-(4-((1-(5-(3,5-difluorophenyl)-4,5-dihydro-1H-pyrazole-1-carbonyl)azetidin-3-yl)oxy)-5-fluoropyridin-2-yl)-3,5-dimethyl-1H-pyrrole-2-carboxylate]",7.00 to 10.00
12,"Cc1nn(-c2cc(OC3CN(C(=O)N4N=CC[C@H]4c4cc(F)cc(F)c4)C3)c(F)cn2)c(C)c1CC(N)=O [compound 225, (S)-2-(1-(4-((1-(5-(3,5-difluorophenyl)-4,5-dihydro-1H-pyrazole-1-carbonyl)azetidin-3-yl)oxy)-5-fluoropyridin-2-yl)-3,5-dimethyl-1H-pyrazol-4-yl)acetamide]",7.00 to 10.00
13,"Cc1nn(-c2cc(OC3CN(C(=O)N4N=CC[C@H]4c4cc(F)cc(F)c4)C3)c(F)cn2)c(C)c1C(=O)NC1CCC1 [compound 249, (S)—N-cyclobutyl-1-(4-((1-(5-(3,5-difluorophenyl)-4,5-dihydro-1H-pyrazole-1-carbonyl)azetidin-3-yl)oxy)-5-fluoropyridin-2-yl)-3,5-dimethyl-1H-pyrazole-4-carboxamide]",7.00 to 10.00
14,Cc1nn(C2CCNCC2)c(C)c1-c1cc(OC2CN(C(=O)N3N=CC[C@H]3c3cc(F)cc(F)c3)C2)c(F)cn1 [compound 181],7.00 to 10.00
15,"COCc1c(C)nn(-c2cc(OC3CN(C(=O)N4N=CC[C@H]4c4cc(F)cc(F)c4)C3)c(F)cn2)c1C [compound 155, (S)-(5-(3,5-difluorophenyl)-4,5-dihydro-1H-pyrazol-1-yl)(3-((5-fluoro-2-(4-(methoxymethyl)-3,5-dimethyl-1H-pyrazol-1-yl)pyridin-4-yl)oxy)azetidin-1-yl)methanone]",7.00 to 10.00
16,"Cc1nn(-c2cc(OC3CN(C(=O)N4N=CC[C@H]4c4cc(F)cc(F)c4)C3)c(F)cn2)cc1C(N)=O [compound 272, (S)-1-(4-((1-(5-(3,5-difluorophenyl)-4,5-dihydro-1H-pyrazole-1-carbonyl)azetidin-3-yl)oxy)-5-fluoropyridin-2-yl)-3-methyl-11H-pyrazole-4-carboxamide]",7.00 to 10.00
17,"Cc1cn(C)c(=O)n1-c1cc(OC2CN(C(=O)N3N=CC[C@H]3c3cc(F)cc(F)c3)C2)c(F)cn1 [compound 238, (S)-3-(4-((1-(5-(3,5-difluorophenyl)-4,5-dihydro-1H-pyrazole-1-carbonyl)azetidin-3-yl)oxy)-5-fluoropyridin-2-yl)-1,4-dimethyl-1,3-dihydro-2H-imidazol-2-one]",6.00 to 7.00
18,"Cc1c(CN)nn(C)c1-c1cc(OC2CN(C(=O)N3N=CC[C@H]3c3cc(F)cc(F)c3)C2)c(F)cn1 [compound 211, (S)-(3-((2-(3-(aminomethyl)-1,4-dimethyl-11H-pyrazol-5-yl)-5-fluoropyridin-4-yl)oxy)azetidin-1-yl)(5-(3,5-difluorophenyl)-4,5-dihydro-1H-pyrazol-1-yl)methanone]",7.00 to 10.00
